# Experimental data as given in ChEMBL document CHEMBL5143692, “Design, synthesis and conformation-activity relationship analysis of LNA/BNA-type 5'-O-aminoribosyluridine as MraY inhibitors” (Bioorg Med Chem, 2022).
# Experiments:
# [1] = test system: Mycobacteroides abscessus; test: Antibacterial activity against Mycobacterium abscessus ATCC 19977 assessed as inhibition of bacterial growth incubated for 5 days by microplate reader analysis; type: functional; settings: ATCC 19977, 120 h, time 5 day
# [2] = biological target: T1, Phospho-N-acetylmuramoyl-pentapeptide-transferase (Staphylococcus aureus, UniProt P0C1R8); test: Inhibition of Staphylococcus aureus MraY assessed as reduction of dansylated lipid I formation using UDP-MurNAcdansylpentapeptide as substrate incubated for 3 to 4 hrs by fluorescence based analysis
# T1 sequence (P0C1R8 whole entry): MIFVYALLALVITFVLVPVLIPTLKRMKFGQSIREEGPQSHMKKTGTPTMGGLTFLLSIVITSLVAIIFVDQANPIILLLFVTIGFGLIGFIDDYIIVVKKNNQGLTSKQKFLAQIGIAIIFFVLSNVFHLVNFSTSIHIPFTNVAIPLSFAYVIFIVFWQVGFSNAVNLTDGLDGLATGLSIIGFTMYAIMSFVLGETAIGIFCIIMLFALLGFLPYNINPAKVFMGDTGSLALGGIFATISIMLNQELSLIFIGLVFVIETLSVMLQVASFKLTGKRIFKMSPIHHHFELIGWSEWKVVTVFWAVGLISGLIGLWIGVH
SMILES,MIC50 [1] [µg/mL],IC50 [2] [µM]
CC[C@H](O[C@@H]1O[C@H](CN)[C@@H](O)[C@H]1O)[C@@]12CO[C@@H]([C@H](n3ccc(=O)[nH]c3=O)O1)[C@@H]2O,32,4.5
NC[C@H]1O[C@@H](OC[C@@]23CO[C@@H]([C@H](n4ccc(=O)[nH]c4=O)O2)[C@@H]3O)[C@H](O)[C@@H]1O,> 32,46
C#C[C@H](O[C@@H]1O[C@H](CN)[C@@H](O)[C@H]1O)[C@@]12CO[C@@H]([C@H](n3ccc(=O)[nH]c3=O)O1)[C@@H]2O,> 32,24
NC[C@H]1O[C@@H](O[C@@H](C#Cc2ccccc2)[C@@]23CO[C@@H]([C@H](n4ccc(=O)[nH]c4=O)O2)[C@@H]3O)[C@H](O)[C@@H]1O,> 32,37

# Further lines, results first:
MIC50 [1] [µg/mL],IC50 [2] [µM],SMILES
> 32,2.3,NC[C@H]1O[C@@H](O[C@@H](C#Cc2ccccc2)[C@H]2O[C@@H](n3ccc(=O)[nH]c3=O)[C@H](O)[C@@H]2O)[C@H](O)[C@@H]1O
> 32,20,C#C[C@H](O[C@@H]1O[C@H](CN)[C@@H](O)[C@H]1O)[C@H]1O[C@@H](n2ccc(=O)[nH]c2=O)[C@H](O)[C@@H]1O
